pIC50: −log10 of the molar value. A value given as a limit tells only on which side of the number the result lay.

The record followed here is patent publication US4835258A, “Conjugation of aromatic amines or nitro-containing compounds with proteins or polypeptides by photoirradiation of the azide derivatives with ultraviolet light in order to produce antibodies against the haptens” (Northwestsern University, priority 1986, dated 1989).

One data set deals with anti-ANEC-BSA serum. Put plainly: Inhibition ELISA, anti-ANEC-BSA serum on ANEC-BSA coated wells. Conditions: anti ANEC-BSA sera. In kind it is binding, rabbit.
The nature of data set [1]: Solubility in aqueous buffer. Type of data set: physicochemical. Conditions: insoluble above this concentration, read-out: solubility limit in aqueous buffer.

For orientation: solubility means the dissolved amount per volume that the medium holds. `CCn1c2ccccc2c2cc(N)ccc21` [3-amino-N-ethyl-carbazole, 3-amino-N-ethylcarbazole]: the pIC50 in the data set with anti-ANEC-BSA serum (free hapten as inhibitor, read-out: concentration giving 50% inhibition of antibody binding) was 5.00. In the data set on anti-ANEC-BSA serum (free hapten at 1 mM), the “inhibition of antibody binding” value is 70%. Also, the solubility in data set [1] is ≤ 1000 µM.
